# Assays:
# [1] = target: T1, IDO1 (Homo sapiens, UniProt P14902); experiment: Hela cell-based IDO1 assay; details: Hela cells
# Outline: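 HeLa cells were seeded at 8000 per well in 96-well plates in phenol red-free DMEM with 10% FBS. After 4 hours, DMSO-diluted compound dilutions were added with IFN-γ (final 100 ng/mL) and 0.4 mM L-Trp, and cells were kept 48 hours at 37 °C, 5% CO2. Supernatant was deproteinised with trichloroacetic acid, and kynurenine was measured at 480 nm after adding 2% 4-(dimethylamino)benzaldehyde. Potency came from four-parameter logistic fits in XLfit.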
# [2] = target: T2, cellular TDO2 in HEK293-TDO2 cells (Homo sapiens, UniProt P48775); experiment: 293-TDO2 cell-based assay (Kyn colorimetric); details: 48 hours of incubation
# T2 construct: expressed in transfected cells; host or cells: HEK293 (ATCC), stably transfected
# T2 sequence (P48775 whole entry): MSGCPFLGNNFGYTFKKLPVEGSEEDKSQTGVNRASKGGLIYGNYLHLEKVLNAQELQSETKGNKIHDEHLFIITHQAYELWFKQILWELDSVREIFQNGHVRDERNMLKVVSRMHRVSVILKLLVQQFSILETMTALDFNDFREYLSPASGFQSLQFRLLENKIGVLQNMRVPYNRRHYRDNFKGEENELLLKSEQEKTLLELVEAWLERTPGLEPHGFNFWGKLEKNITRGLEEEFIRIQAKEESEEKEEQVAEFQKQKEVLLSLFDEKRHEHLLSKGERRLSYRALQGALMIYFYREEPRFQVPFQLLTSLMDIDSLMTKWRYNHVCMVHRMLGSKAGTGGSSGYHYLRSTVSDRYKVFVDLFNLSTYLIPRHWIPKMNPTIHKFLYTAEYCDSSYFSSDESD
# Method: The inhibitory activity of TDO2 inhibitors is determined by using a colorimetric reaction to measure Kyn generated from L-Trp (L-Tryptophon) oxidation by cellular TDO2 in HEK293-TDO2 cells stably transfected with a plasmid expression of Tryptophan 2,3-dioxygenase (for short, 293-TDO2).
# HEK293 cells were obtained from the American Type Culture Collection and 293-TDO2 were recovered in 10% FBS-containing phenol red-free DMEM medium. Cells were plated onto a 96-well plate (100 μl/well) at 10000 cells per well and kept at 37° C. in a humidified incubator supplied with 5% CO2. 4 hours later, Compounds at different concentrations diluted in dimethylsulfoxide (DMSO) were added to plate. Cells were kept at 37° C. in a humidified incubator supplied with 5% CO2. After 48 hours of incubation, 100 μl supernatant from each well was removed to a new plate. The protein in the medium was precipitated with the addition of 8 μl 6N trichloroacetic acid. The plate was incubated at 60° C. for 30 minutes and then centrifugation at 2500 rpm for 10 minutes to remove sediments. 80 μl supernatants were carefully removed to a new clean plate and added with an equal volume of 2% 4-(Dimethylamino) benzaldehyde (D2004, sigma) dissolved in glacial acetic acid. The absorbance at 480 nm wavelength derived from Kyn was measured using a PHERAstar FS plate reader (BMG LABTECH). The IC50 for each compound was derived from fitting the dose-response data to the four-parameter logistic model by using XLfit software (IDBS).
# [3] = target: T1, IDO1; experiment: IDO1 enzymatic assay; type: biochemical; set-up: His tag (N); made in house; host or cells: E. coli; details: read-out: Enzyme IC50 IDO1
# Outline: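 IC50 values reflect remaining IDO1 activity over increasing compound concentrations. The enzyme (50 nM, N-terminally His-tagged, purified from E. coli) was incubated for 1.5 hours at 24 °C with compound, 1.3 mM D-tryptophan, 5 mM L-ascorbic acid, methylene blue and 0.4 mg/mL catalase in 50 mM potassium phosphate pH 7.5 with 0.1% BSA. The slope of N'-formylkynurenine formation, read continuously at 321 nm for 1 hour, served as activity.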
# T1 sequence (P14902 whole entry): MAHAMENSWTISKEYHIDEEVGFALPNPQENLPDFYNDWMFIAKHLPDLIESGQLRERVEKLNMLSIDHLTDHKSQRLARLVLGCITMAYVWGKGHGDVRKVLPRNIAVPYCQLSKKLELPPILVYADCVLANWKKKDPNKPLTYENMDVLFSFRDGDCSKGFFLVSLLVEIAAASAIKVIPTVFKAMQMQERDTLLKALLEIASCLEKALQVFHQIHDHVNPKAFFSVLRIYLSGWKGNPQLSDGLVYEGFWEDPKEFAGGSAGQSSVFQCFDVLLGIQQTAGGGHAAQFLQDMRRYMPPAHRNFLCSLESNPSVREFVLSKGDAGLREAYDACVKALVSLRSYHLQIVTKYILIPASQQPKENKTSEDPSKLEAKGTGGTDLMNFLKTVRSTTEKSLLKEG
Compound,EC50 [1],EC50 [2],IC50 [3]
"COc1ccc(C2CCC(C(O)c3c(C4CC4)ccn4cncc34)CC2)cc1 (racemic) [Example C101, (7-cyclopropylimidazo[1,5-a]pyridin-8-yl)(4-(4-methoxyphenyl)cyclohexyl)methanol]",0.2 µM,> 10 µM,0.041 µM
"OC(c1c(C2CC2)ccn2cncc12)C1CCC(c2ccc(Cl)cc2)CC1 (racemic) [Example C102, (4-(4-chlorophenyl)cyclohexyl)(7-cyclopropylimidazo[1,5-a]pyridin-8-yl)methanol]",0.261 µM,> 10 µM,0.1 µM
"COCCOc1ccc(C2CCC(C(O)c3c(C4CC4)ccn4cncc34)CC2)cc1 (racemic) [Example C103, (7-cyclopropylimidazo[1,5-a]pyridin-8-yl)(4-(4-(2-methoxyethoxy)phenyl)cyclohexyl)methanol]",0.095 µM,> 10 µM,0.062 µM
Oc1ccc(C2CCC(C(O)c3c(C4CC4)ccn4cncc34)CC2)cc1 (racemic) [Example C104],0.082 µM,> 10 µM,0.036 µM
OC(c1c(C2CC2)ccn2cncc12)C1CCC(c2ccc(OC(F)(F)F)cc2)CC1 (racemic) [Example C105],2.01 µM,> 10 µM,0.21 µM
"N#Cc1ccc(C2CCC(C(O)c3c(C4CC4)ccn4cncc34)CC2)cc1 (racemic) [Example C106, 4-(4-((7-cyclopropylimidazo[1,5-a]pyridin-8-yl)(hydroxy)methyl)cyclohexyl)benzonitrile]",0.429 µM,> 10 µM,0.05 µM
"OC(c1c(C2CC2)ccn2cncc12)C1CCC(c2ccc(F)cc2)CC1 (racemic) [Example C107, (7-cyclopropylimidazo[1,5-a]pyridin-8-yl)(4-(4-fluorophenyl)cyclohexyl)methanol]",0.157 µM,> 10 µM,0.065 µM
"OC(c1c(C2CC2)ccn2cncc12)C1CCC(c2ccccc2F)CC1 (racemic) [Example C108, (7-cyclopropylimidazo[1,5-a]pyridin-8-yl)(4-(2-fluorophenyl)cyclohexyl)methanol]",0.32 µM,> 10 µM,0.059 µM
"OC(c1c(C2CC2)ccn2cncc12)C1CCC(c2cccc(F)c2)CC1 (racemic) [Example C109, (7-cyclopropylimidazo[1,5-a]pyridin-8-yl)(4-(3-fluorophenyl)cyclohexyl)methanol]",0.1 µM,> 10 µM,0.087 µM
"Cc1cccc(C2CCC(C(O)c3c(C4CC4)ccn4cncc34)CC2)c1 (racemic) [Example C111, (7-cyclopropylimidazo[1,5-a]pyridin-8-yl)(4-(m-tolyl)cyclohexyl)methanol]",0.2 µM,> 10 µM,0.082 µM
"O[C@@H](c1c(C2CC2)ccn2cncc12)[C@H]1CC[C@H](c2ccc(Cl)cc2)CC1 (single isomer, unassigned) [Example C102b]",> 10 µM,> 10 µM,> 10 µM
"COCCOc1ccc([C@H]2CC[C@H]([C@@H](O)c3c(C4CC4)ccn4cncc34)CC2)cc1 (single isomer, unassigned) [Example C103b]",2.98 µM,> 10 µM,1.2 µM
"Oc1ccc([C@H]2CC[C@H](C(O)c3c(C4CC4)ccn4cncc34)CC2)cc1 (single isomer, unassigned) [Example C104b]",> 10 µM,> 10 µM,5.2 µM
"O[C@@H](c1c(C2CC2)ccn2cncc12)[C@H]1CC[C@H](c2ccc(OC(F)(F)F)cc2)CC1 (single isomer, unassigned) [Example C105b]",> 10 µM,> 10 µM,2 µM
"N#Cc1ccc([C@H]2CC[C@H](C(O)c3c(C4CC4)ccn4cncc34)CC2)cc1 (single isomer, unassigned) [Example C106b]",> 10 µM,> 10 µM,2.3 µM
"O[C@@H](c1c(C2CC2)ccn2cncc12)[C@H]1CC[C@H](c2ccc(F)cc2)CC1 (single isomer, unassigned) [Example C107b]",> 10 µM,> 10 µM,5.1 µM
"O[C@@H](c1c(C2CC2)ccn2cncc12)[C@H]1CC[C@H](c2ccccc2F)CC1 (single isomer, unassigned) [Example C108b]",> 10 µM,> 10 µM,7.3 µM

Compound,EC50 [1],EC50 [2],IC50 [3]
"O[C@@H](c1c(C2CC2)ccn2cncc12)[C@H]1CC[C@H](c2cccc(F)c2)CC1 (single isomer, unassigned) [Example C109b]",> 10 µM,> 10 µM,> 10 µM
"Cc1ccc([C@H]2CC[C@H]([C@@H](O)c3c(C4CC4)ccn4cncc34)CC2)cc1 (single isomer, unassigned) [Example C110b]",> 10 µM,> 10 µM,> 10 µM
"Cc1cccc([C@H]2CC[C@H]([C@@H](O)c3c(C4CC4)ccn4cncc34)CC2)c1 (single isomer, unassigned) [Example C111b]",> 10 µM,> 10 µM,> 10 µM
"Cc1ccccc1[C@H]1CC[C@H]([C@@H](O)c2c(C3CC3)ccn3cncc23)CC1 (single isomer, unassigned) [Example C112b]",> 10 µM,> 10 µM,> 10 µM
"COc1ccccc1[C@H]1CC[C@H]([C@@H](O)c2c(C3CC3)ccn3cncc23)CC1 (single isomer, unassigned) [Example C113b]",> 10 µM,> 10 µM,8.2 µM
"COc1cccc([C@H]2CC[C@H]([C@@H](O)c3c(C4CC4)ccn4cncc34)CC2)c1 (single isomer, unassigned) [Example C114b]",> 10 µM,> 10 µM,4.7 µM
"O[C@@H](c1c(C2CC2)ccn2cncc12)[C@H]1CC[C@H](c2ccc(C(F)(F)F)cc2)CC1 (single isomer, unassigned) [Example C115b]",9.45 µM,> 10 µM,> 10 µM
"O[C@@H](c1c(C2CC2)ccn2cncc12)[C@H]1CC[C@H](c2ccccc2C(F)(F)F)CC1 (single isomer, unassigned) [Example C116b]",> 10 µM,> 10 µM,5.4 µM
"O[C@@H](c1c(C2CC2)ccn2cncc12)[C@H]1CC[C@H](c2ccc(OC3COC3)cc2)CC1 (single isomer, unassigned) [Example C117b]",> 10 µM,> 10 µM,1.1 µM
"O[C@@H](c1c(C2CC2)ccn2cncc12)[C@H]1CC[C@H](c2ccc(OC3CCCC3)cc2)CC1 (single isomer, unassigned) [Example C118b]",> 10 µM,> 10 µM,3 µM
"O[C@@H](c1c(C2CC2)ccn2cncc12)[C@H]1CC[C@H](c2ccc(C(F)(F)F)nc2)CC1 (single isomer, unassigned) [Example C120b]",> 10 µM,> 10 µM,4.8 µM
"O[C@@H](c1c(C2CC2)ccn2cncc12)[C@H]1CC[C@H](c2cccc3ccccc32)CC1 (single isomer, unassigned) [Example C121b]",> 10 µM,> 10 µM,1.5 µM
"O[C@H](c1c(C2CC2)ccn2cncc12)[C@H]1CC[C@H](c2cccc3ncccc32)CC1 (single isomer, unassigned) [Example C126a]",0.02 µM,> 10 µM,0.016 µM
"OC(c1c(C2CC2)ccc2cncn12)[C@H]1CC[C@H](c2cccc(F)c2F)CC1 (single isomer, unassigned) [Example D132b]",> 10 µM,,7.5 µM
"O[C@H](c1c(C2CC2)ccc2cncn12)C1CCN(c2ccccc2)CC1 (single isomer, unassigned) [Example D170a]",0.022 µM,> 10 µM,
"O[C@H](c1c(C2CC2)ccc2cncn12)C1CCN(c2ccc(Cl)c3ncccc23)CC1 (single isomer, unassigned) [Example D178a]",0.0097 µM,> 10 µM,
"OC(c1c(C2CC2)ccn2cncc12)C1CCC(c2ccc(F)c(F)c2)CC1 (centres unmarked) [Example C131, (7-cyclopropylimidazo[1,5-a]pyridin-8-yl)(4-(3,4-difluorophenyl)cyclohexyl)methanol]",,> 10 µM,0.11 µM

# From patent US10882856B2 (BeiGene, Ltd., priority 2017, dated 2021)
